In PubChem BioAssay AID504522 (The Scripps Research Institute Molecular Screening Center, 2011):
Activity calls are given as the source filed them. No rule for the calls is given here.

Columns and labels:
Test in all cases: SILAC ABPP selectivity across cellular hydrolases – LC-MS, mouse cells, selectivity assay for LYPLA1 inhibitor project, late-stage follow-up (AID 504522)
ACOT1 = conditions: serine hydrolase panel, active compounds read low
[1] = target: Prolyl endopeptidase (Mus musculus) (UniProt Q9QUR6); conditions: serine hydrolase panel, PREP, active compounds read low
PLA2G6 = conditions: serine hydrolase panel, active compounds read low
AADACL1 = conditions: serine hydrolase panel, active compounds read low
DPP7 = conditions: serine hydrolase panel, active compounds read low
PRCP = conditions: serine hydrolase panel, active compounds read low
SERHL = conditions: serine hydrolase panel, active compounds read low
LACTB = conditions: serine hydrolase panel, active compounds read low
ABHD11 = conditions: serine hydrolase panel, active compounds read low
IAH1 = conditions: serine hydrolase panel, active compounds read low
ESD = conditions: serine hydrolase panel, active compounds read low
DPP9 = conditions: serine hydrolase panel, active compounds read low
LYPLA3 = conditions: serine hydrolase panel, active compounds read low
APEH = conditions: serine hydrolase panel, active compounds read low
PNPLA6 = conditions: serine hydrolase panel, active compounds read low
DPP8 = conditions: serine hydrolase panel, active compounds read low
PAFAH1B2 = conditions: serine hydrolase panel, active compounds read low
LYPLA2 = conditions: serine hydrolase panel, active compounds read low
LYPLA1 = conditions: serine hydrolase panel, active compounds read low
LIPA = conditions: serine hydrolase panel, active compounds read low
ACOT7 = conditions: serine hydrolase panel, active compounds read low
SIAE = conditions: serine hydrolase panel, active compounds read low
ABHD10 = conditions: serine hydrolase panel, active compounds read low
BAT5 = conditions: serine hydrolase panel, active compounds read low
DDHD1 = conditions: serine hydrolase panel, active compounds read low
PARL = conditions: serine hydrolase panel, active compounds read low
[2] = target: Platelet-activating factor acetylhydrolase 2, cytoplasmic (Mus musculus) (UniProt Q8VDG7); conditions: serine hydrolase panel, PAFAH2, active compounds read low
DPP4 = conditions: serine hydrolase panel, active compounds read low
PPME1 = conditions: serine hydrolase panel, active compounds read low
FAAH = conditions: serine hydrolase panel, active compounds read low
PNPLA8 = conditions: serine hydrolase panel, active compounds read low
CTSA = conditions: serine hydrolase panel, active compounds read low
FASN = conditions: serine hydrolase panel, active compounds read low
ACOT2 = conditions: serine hydrolase panel, active compounds read low
ABHD12 = conditions: serine hydrolase panel, active compounds read low
ABHD6 = conditions: serine hydrolase panel, active compounds read low
PREPL = conditions: serine hydrolase panel, active compounds read low
PAFAH1B3 = conditions: serine hydrolase panel, active compounds read low
FAM108B1 = conditions: serine hydrolase panel, active compounds read low

Chain of Prolyl endopeptidase (Mus musculus) (Q9QUR6 whole entry, looked up): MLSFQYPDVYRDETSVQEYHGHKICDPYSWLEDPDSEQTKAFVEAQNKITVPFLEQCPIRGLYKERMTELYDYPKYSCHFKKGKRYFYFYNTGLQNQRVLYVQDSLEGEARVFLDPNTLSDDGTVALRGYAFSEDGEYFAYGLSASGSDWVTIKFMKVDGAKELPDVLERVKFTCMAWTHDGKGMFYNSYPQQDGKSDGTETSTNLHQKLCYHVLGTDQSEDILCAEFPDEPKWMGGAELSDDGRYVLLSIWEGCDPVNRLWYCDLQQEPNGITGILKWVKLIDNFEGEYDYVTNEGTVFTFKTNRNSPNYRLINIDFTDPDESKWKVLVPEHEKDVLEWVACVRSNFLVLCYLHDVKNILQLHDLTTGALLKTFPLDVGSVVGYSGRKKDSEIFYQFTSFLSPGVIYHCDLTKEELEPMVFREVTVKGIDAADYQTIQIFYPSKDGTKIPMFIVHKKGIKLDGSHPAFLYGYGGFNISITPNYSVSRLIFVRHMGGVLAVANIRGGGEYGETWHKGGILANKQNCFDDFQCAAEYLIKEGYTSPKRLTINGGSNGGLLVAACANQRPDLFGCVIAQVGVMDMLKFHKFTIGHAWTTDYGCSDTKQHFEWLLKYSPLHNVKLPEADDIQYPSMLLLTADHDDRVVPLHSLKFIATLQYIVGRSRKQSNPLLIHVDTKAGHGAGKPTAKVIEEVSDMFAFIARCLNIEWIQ
Chain of Platelet-activating factor acetylhydrolase 2, cytoplasmic (Mus musculus) (Q8VDG7 whole entry, looked up): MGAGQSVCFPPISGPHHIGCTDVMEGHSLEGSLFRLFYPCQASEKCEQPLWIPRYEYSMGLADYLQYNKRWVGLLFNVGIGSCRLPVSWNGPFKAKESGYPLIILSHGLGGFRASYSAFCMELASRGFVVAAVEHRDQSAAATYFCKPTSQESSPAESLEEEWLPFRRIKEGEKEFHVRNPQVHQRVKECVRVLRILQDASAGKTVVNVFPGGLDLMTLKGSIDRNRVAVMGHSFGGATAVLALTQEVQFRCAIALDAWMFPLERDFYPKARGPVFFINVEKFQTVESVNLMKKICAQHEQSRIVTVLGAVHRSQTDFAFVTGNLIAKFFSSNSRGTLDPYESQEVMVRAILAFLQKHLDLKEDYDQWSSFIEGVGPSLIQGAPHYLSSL

For `COCC1CCCCN1C(=O)n1ncc(C(O)(c2ccccc2)c2ccccc2)n1` (centres undefined), the SILAC ratio (probe-treated/control) (ACOT1) was 1 (inactive), the SILAC ratio (probe-treated/control) [1] was 1.4 (inactive) and the SILAC ratio (probe-treated/control) (PLA2G6) was 1.4 (inactive). For the same compound, the SILAC ratio (probe-treated/control) (AADACL1) was 1.3 (inactive), the SILAC ratio (probe-treated/control) (DPP7) was 1.3 (inactive) and the SILAC ratio (probe-treated/control) (PRCP) was 1.5 (inactive). For the same compound, the SILAC ratio (probe-treated/control) (SERHL) was 1.5 (inactive), the SILAC ratio (probe-treated/control) (LACTB) was 1.5 (inactive) and the SILAC ratio (probe-treated/control) (ABHD11) was 0.02. For the same compound, the SILAC ratio (probe-treated/control) (IAH1) was 1.4 (inactive), the SILAC ratio (probe-treated/control) (ESD) was 1.4 (inactive) and the SILAC ratio (probe-treated/control) (DPP9) was 1.5 (inactive). For the same compound, the SILAC ratio (probe-treated/control) (LYPLA3) was 1.5 (inactive), the SILAC ratio (probe-treated/control) (APEH) was 1.4 (inactive) and the SILAC ratio (probe-treated/control) (PNPLA6) was 1.4 (inactive). For the same compound, the SILAC ratio (probe-treated/control) (DPP8) was 1.5 (inactive), the SILAC ratio (probe-treated/control) (PAFAH1B2) was 1.6 (inactive) and the SILAC ratio (probe-treated/control) (LYPLA2) was 1.5 (inactive). For the same compound, the SILAC ratio (probe-treated/control) (LYPLA1) was 1.5 (inactive), the SILAC ratio (probe-treated/control) (LIPA) was 1.4 (inactive) and the SILAC ratio (probe-treated/control) (ACOT7) was 1.5 (inactive). The SILAC ratio (probe-treated/control) (SIAE) was 1.5 (inactive), the SILAC ratio (probe-treated/control) (ABHD10) was 1.3 (inactive) and the SILAC ratio (probe-treated/control) (BAT5) was 1.5 (inactive). For the same compound, the SILAC ratio (probe-treated/control) (DDHD1) was 2 (inactive), the SILAC ratio (probe-treated/control) (PARL) was 1.5 (inactive) and the SILAC ratio (probe-treated/control) [2] was 1.3 (inactive). For the same compound, the SILAC ratio (probe-treated/control) (DPP4) was 1 (inactive), the SILAC ratio (probe-treated/control) (PPME1) was 1.5 (inactive) and the SILAC ratio (probe-treated/control) (FAAH) was 1.5 (inactive). The SILAC ratio (probe-treated/control) (PNPLA8) was 1.3 (inactive), the SILAC ratio (probe-treated/control) (CTSA) was 1.3 (inactive) and the SILAC ratio (probe-treated/control) (FASN) was 1.5 (inactive). The SILAC ratio (probe-treated/control) (ACOT2) was 1.1 (inactive), the SILAC ratio (probe-treated/control) (ABHD12) was 1.3 (inactive) and the SILAC ratio (probe-treated/control) (ABHD6) was 0.9 (inactive). For the same compound, the SILAC ratio (probe-treated/control) (PREPL) was 1.2 (inactive), the SILAC ratio (probe-treated/control) (PAFAH1B3) was 1.3 (inactive) and the SILAC ratio (probe-treated/control) (FAM108B1) was 1.3 (inactive).
